Measured values reported in US20230330254A1 (Regeneron Pharmaceuticals, Inc., priority 2022, published 2023).
Like-named read-outs stand apart in the source and are kept apart here. *1 amine or outer side, *2 acyl side, *3 side chain or, on linkers, in order; H or OH if unused. Where a SMILES comes first, the peptide text is derived from it. [ ]: non-standard residue; d: D form. The star is where a group is joined. Bip(2'-Et-4'-O(CH2)4NH2) = CCc1cc(OCCCCN[*:3])ccc1-c1ccc(C[C@H](N[*:1])C(=O)[*:2])cc1; Bip(2'-Et,4'-O(CH2)4N3) = CCc1cc(OCCCCN=[N+]=[N-])ccc1-c1ccc(C[C@H](N)C(=O)O)cc1; X10 = O=C(NCCOCCOCCOCCOC(=O)*)OC[C@@H]1[C@@H]2CCc3[nH]nnc3CC[C@@H]21; Malonyl(2,2-Me2,histaminyl) = CC(C)(C(=O)NCCc1cnc[nH]1)C(=O)*; Nva(5-(3,5-Me2Ph)) = Cc1cc(C)cc(CCC[C@H](N)C(=O)O)c1; Ala(1H-tetrazol-5-yl) = N[C@@H](Cc1nnn[nH]1)C(=O)O; αMePhe(2-F) = C[C@](N)(Cc1ccccc1F)C(=O)O

Assay: Plasma stability of payloads and linker-payloads, human plasma
Assay type: in vitro ADME
Conditions: plasma, 2 μM, 37° C.; for half-life at 2 µM: read-out: Human plasma stability assay T½ (converted)
Experimental: The plasma stability of payloads and linker payloads of the disclosure were measured. For the assay, pooled frozen plasma (human, mouse or monkey) was thawed in cold water or a 37° C. water bath prior to experiment. Plasma was centrifuged at 4000 rpm for 5 min if any clots were observed, they were subsequently removed. If required, the pH was adjusted to 7.4±0.1. For the preparation of compounds and positive controls, a 1 mM intermediate solution was prepared by diluting 10 μL of their stock solution with 90 μL DMSO; a 1 mM intermediate solution of the positive control (Propantheline) was prepared by diluting 10 μL of its stock solution with 90 μL ultrapure water. […] 98 μL of plasma was spiked with 2 μL of dosing solution (100 μM) to achieve the final concentration of 2 μM in duplicate. Samples were then incubated at 37° C. in a water bath. […] At each time point, 400 μL of stop solution (200 ng/mL tolbutamide plus 200 ng/mL labetalol in 50% ACN/MeOH) was added to precipitate protein and mixed thoroughly. Sample plates were then centrifuged at 4,000 rpm for 10 min. An aliquot of supernatant (50 μL) was transferred from each well and mixed with 100 μL ultrapure water. The samples were then shaken at 800 rpm for approximately 10 min before submitting for LC-MS/MS analysis.

SMILES | half-life at 2 µM (pH 7.4, tested time D (7 days)) | also measured
CCc1cc(OCCCCn2cc(COCCOCCOCCOCCOCCOCCOCCOCCN)nn2)ccc1-c1ccc(C[C@H](NC(=O)[C@H](CC(=O)O)NC(=O)[C@H](CO)NC(=O)[C@@H](NC(=O)[C@](C)(Cc2ccccc2F)NC(=O)[C@@H](NC(=O)CNC(=O)[C@H](Cc2nn[nH]n2)NC(=O)C(C)(C)NC(=O)[C@@H](N)Cc2ccc(O)cc2)[C@@H](C)O)[C@@H](C)O)C(=O)N[C@@H](CCCc2cc(C)cc(C)c2)C(N)=O)cc1 [LP29, NH2-PEG8-triazole-P19] |  | half-life at 2 µM (pH 7.4, tested time C (3 days)): > 7.23 days
CCc1cc(OCCCCn2cc(COCCOCCOCCOCCNC(=O)OC[C@@H]3[C@@H]4CCc5[nH]nnc5CC[C@@H]43)nn2)ccc1-c1ccc(C[C@H](NC(=O)[C@H](CC(=O)O)NC(=O)[C@H](CO)NC(=O)[C@@H](NC(=O)[C@](C)(Cc2ccccc2F)NC(=O)[C@@H](NC(=O)CNC(=O)[C@H](Cc2nn[nH]n2)NC(=O)C(C)(C)C(=O)NCCc2cnc[nH]2)[C@@H](C)O)[C@@H](C)O)C(=O)N[C@@H](CCCc2cc(C)cc(C)c2)C(N)=O)cc1 [LP24, triazole-BCN-PEG4-triazole-P8] | > 16.9 days | 
CCc1cc(OCCCCNC(=O)OCCOCCOCCOCCNC(=O)OC[C@@H]2[C@@H]3CCc4[nH]nnc4CC[C@@H]32)ccc1-c1ccc(C[C@H](NC(=O)[C@H](CC(=O)O)NC(=O)[C@H](CO)NC(=O)[C@@H](NC(=O)[C@](C)(Cc2ccccc2F)NC(=O)[C@@H](NC(=O)CNC(=O)[C@H](Cc2nn[nH]n2)NC(=O)C(C)(C)C(=O)NCCc2cnc[nH]2)[C@@H](C)O)[C@@H](C)O)C(=O)N[C@@H](CCCc2cc(C)cc(C)c2)C(N)=O)cc1 [LP25, triazole-BCN-PEG4-carba-mate-P9] ({Malonyl(2,2-Me2,histaminyl)}-[Ala(1H-tetrazol-5-yl)]GT[αMePhe(2-F)]TSD[Bip(2'-Et-4'-O(CH2)4NH2)](X10)[Nva(5-(3,5-Me2Ph))]-NH2) | 11.9 days | 
CCc1cc(OCCCCn2cc(COCCOCCOCCOCCOCCOCCOCCOCCC(=O)N[C@@H](CC(C)C)C(=O)N3CCC[C@@H]3C(=O)N[C@@H](CCC(=O)O)C(=O)N[C@H](C(=O)NCC(=O)NCC(=O)O)[C@@H](C)O)nn2)ccc1-c1ccc(C[C@H](NC(=O)[C@H](CC(=O)O)NC(=O)[C@H](CO)NC(=O)[C@@H](NC(=O)[C@](C)(Cc2ccccc2F)NC(=O)[C@@H](NC(=O)CNC(=O)[C@H](Cc2nn[nH]n2)NC(=O)C(C)(C)C(=O)NCCc2cnc[nH]2)[C@@H](C)O)[C@@H](C)O)C(=O)N[C@@H](CCCc2cc(C)cc(C)c2)C(N)=O)cc1 [LP34, GGT EPL-PEG8-triazole-P8] |  | half-life (tested time C (3 days), read-out: Human plasma stability assay T½): > 7.23 days
CCc1cc(OCCCCN=[N+]=[N-])ccc1-c1ccc(C[C@H](NC(=O)[C@H](CC(=O)O)NC(=O)[C@H](CO)NC(=O)[C@@H](NC(=O)[C@](C)(Cc2ccccc2F)NC(=O)[C@@H](NC(=O)CNC(=O)[C@H](Cc2nn[nH]n2)NC(=O)C(C)(C)C(=O)NCCc2cnc[nH]2)[C@@H](C)O)[C@@H](C)O)C(=O)N[C@@H](CCCc2cc(C)cc(C)c2)C(=O)O)cc1 [P41] ({Malonyl(2,2-Me2,histaminyl)}-[Ala(1H-tetrazol-5-yl)]GT[αMePhe(2-F)]TSD[Bip(2'-Et,4'-O(CH2)4N3)][Nva(5-(3,5-Me2Ph))]-OH) |  | half-life at 2 µM (pH 7.4, tested time A (1 day per footnote)): > 2.41 days
CCc1cc(OCCCCNC(=O)[C@H](CO)NC(=O)CNC(=O)CNC(=O)CNC(=O)CNC(=O)CCC(=O)N2Cc3ccccc3-c3nn[nH]c3-c3ccccc32)ccc1-c1ccc(C[C@H](NC(=O)[C@H](CC(=O)O)NC(=O)[C@H](CO)NC(=O)[C@@H](NC(=O)[C@](C)(Cc2ccccc2F)NC(=O)[C@@H](NC(=O)CNC(=O)[C@H](Cc2nn[nH]n2)NC(=O)C(C)(C)C(=O)NCCc2cnc[nH]2)[C@@H](C)O)[C@@H](C)O)C(=O)N[C@@H](CCCc2cc(C)cc(C)c2)C(N)=O)cc1 [LP26, triazole- DIBAC- G4S-P9] | > 16.9 days | 
